Results published in US20250082624A1, “METHODS OF TREATING COGNITIVE IMPAIRMENT” (NeuroTherapia, Inc., priority 2023, published 2025).
“Also recorded” adds a separate entry of the source. Where two headings read alike, the source gives them in different places.

Test: Phase 1b MAD plasma pharmacokinetics, non-compartmental analysis
Format: in vivo, human
Description: Methods: All study procedures were approved by the IRB, and informed consent was obtained. Three cohorts of volunteers 45-80 years of age with well-controlled comorbidities (NOAD) and one cohort of AD patients diagnosed with cognitive impairment consistent with prodromal AD per International Working Group criteria or mild AD per National Institute on Aging—Alzheimer's Association criteria (n=6 active, 2 placebo per cohort) were enrolled. Participants were admitted to the study site for the duration of the dosing and returned 7-12 days after the last dose for a safety visit. Participants received NTRX-07 (10, 30, or 90 mg) or a placebo in a double-blinded randomization orally once daily for seven days. Subjects were assessed for changes in vital signs, including maneuvers to induce lightheadedness, electrocardiograms, 24-hour electroencephalograms (EEG), and safety laboratory studies. The second cohort returned and received a single repeat dose after a standard high-fat meal. The AD cohort also underwent cognitive testing and had blood samples for biomarkers drawn. Subjects had PK sampling done after the first and final dose of the study drug. An independent safety review committee conducted a blinded safety review of adverse events and plasma levels between each cohort.
All subjects had PK sampling done after the first and final dose of the study drug.
(§1) Raw bioanalytical data were received from Nuvisan following analysis of plasma samples from each of four cohorts. PK parameters were calculated by noncompartmental analysis using standard equations. Specifically, area under the plasma concentration versus time curve (AUC) was calculated using the trapezoid rule. Maximal plasma concentration (Cmax) and time of maximal plasma concentration (Tmax) were taken directly from the data. Clearance divided by bioavailability (Cl/F) was calculated as the dose divided by the AUC. Apparent volume of distribution over bioavailability (Vd/F) was calculated as dose divided by Cmax.
With oral administration of the dose every 24 hours for 7 days, blood samples were taken over a 24-hour interval on Days 1 and 7 and before and after dosing on Day 3.
as §1, with “on Oct. 27, 2022. […]” for “following analysis of plasma samples from each of four cohorts. PK parameters were calculated by noncompartmental analysis using standard equations.”
as §1, with “on Nov. 24, 2022. […]” for “following analysis of plasma samples from each of four cohorts. PK parameters were calculated by noncompartmental analysis using standard equations.”
as §1, with “on Dec. 19, 2022. […]” for “following analysis of plasma samples from each of four cohorts. PK parameters were calculated by noncompartmental analysis using standard equations.”
Raw bioanalytical data were received from Nuvisan on Jun. 30, 2023. […] Specifically, area under the plasma concentration versus time curve (AUC) was calculated using the trapezoid rule. Maximal plasma concentration (Cmax) and time of maximal plasma concentration (Tmax) were taken directly from the data. […]

Compound `CC1(Cc2ccccc2)COc2cc(C(=O)N3CCCCC3)ccc21` (stereo not drawn) [NTRX-07, 3-benzyl-3-methyl-2,3-dihydrobenzofuran-6-carboxylic acid-piperidine amide] has a Cmax (human, plasma, po, 90 mg, Cohort D AD patients, 90 mg QD oral, Day 7, mean ± SD, read-out: Average of Cmax) of 240 ± 38 ng/mL, a Tmax (human, plasma, po, 90 mg, Cohort D AD patients, 90 mg QD oral, Day 7, mean ± SD, read-out: Average of Tmax) of 1.1 ± 0.5 h and a Vd/F (human, plasma, po, 90 mg, Cohort D AD patients, 90 mg QD oral, Day 7, mean ± SD, read-out: Average of Vd/F) of 384 ± 69 L. The AUC over 24 h (AUC0-24) (human, plasma, po, 90 mg, Table 14: Cohort C, 90 mg QD oral, Day 1, mean ± S.D.) was 1270 ± 509 ng·h/mL, the Cmax (human, plasma, po, 90 mg, Table 14: Cohort C, 90 mg QD oral, Day 1, mean ± S.D., read-out: Cmax) was 400 ± 202 ng/mL and the Tmax (human, plasma, po, 90 mg, Table 14: Cohort C, 90 mg QD oral, Day 1, mean ± S.D., read-out: Tmax) was 2.3 ± 2.2 h. The Vd/F (human, plasma, po, 90 mg, Table 14: Cohort C, 90 mg QD oral, Day 1, mean ± S.D., read-out: Vd/F) was 337 ± 316 L, the AUC over 24 h (AUC0-24) (human, plasma, po, 90 mg, Table 15: Cohort C, 90 mg QD oral, Day 7, mean ± S.D.) was 741 ± 357 ng·h/mL and the Cmax (human, plasma, po, 90 mg, Table 15: Cohort C, 90 mg QD oral, Day 7, mean ± S.D., read-out: Cmax) was 189 ± 95 ng/mL. It also gave a Tmax (human, plasma, po, 90 mg, Table 15: Cohort C, 90 mg QD oral, Day 7, mean ± S.D., read-out: Tmax) of 1.3 ± 1 h, a Vd/F (human, plasma, po, 90 mg, Table 15: Cohort C, 90 mg QD oral, Day 7, mean ± S.D., read-out: Vd/F) of 568 ± 231 L and an AUC(0-t) (human, plasma, po, 90 mg, Table 16: Cohort D (AD), 90 mg QD oral, Day 1, mean ± S.D., read-out: AUClast) of 1560 ± 605 ng·h/mL. It also gave a Cmax (human, plasma, po, 90 mg, Table 16: Cohort D (AD), 90 mg QD oral, Day 1, mean ± S.D., read-out: Cmax) of 478 ± 154 ng/mL, a Tmax (human, plasma, po, 90 mg, Table 16: Cohort D (AD), 90 mg QD oral, Day 1, mean ± S.D., read-out: Tmax) of 1.1 ± 0.6 h and a Vd/F (human, plasma, po, 90 mg, Table 16: Cohort D (AD), 90 mg QD oral, Day 1, mean ± S.D., read-out: Vd/F) of 211 ± 90 L. It also gave an AUC over 24 h (AUC0-24) (human, plasma, po, 90 mg, Table 17: Cohort D (AD), 90 mg QD oral, Day 7, individual subjects) of 623 ng·h/mL, a Cmax (human, plasma, po, 90 mg, Table 17: Cohort D (AD), 90 mg QD oral, Day 7, individual subjects, read-out: Cmax) of 286 ng/mL and a Vd/F (human, plasma, po, 90 mg, Table 17: Cohort D (AD), 90 mg QD oral, Day 7, individual subjects, read-out: Vd/F) of 315 L. For the same compound, the AUC over 24 h (AUC0-24) (human, plasma, po, 90 mg, Table 17: Cohort D (AD), 90 mg QD oral, Day 7, mean ± S.D.) was 806 ± 196 ng·h/mL, the Cmax (human, plasma, po, 90 mg, Table 17: Cohort D (AD), 90 mg QD oral, Day 7, mean ± S.D., read-out: Cmax) was 240 ± 38 ng/mL and the Tmax (human, plasma, po, 90 mg, Table 17: Cohort D (AD), 90 mg QD oral, Day 7, mean ± S.D., read-out: Tmax) was 1.1 ± 0.5 h. It also gave a Vd/F (human, plasma, po, 90 mg, Table 17: Cohort D (AD), 90 mg QD oral, Day 7, mean ± S.D., read-out: Vd/F) of 384 ± 69 L, an AUC over 24 h (AUC0-24) (human, plasma, po, 120 mg, Table 24 (interim): Cohort B, 120 mg SDD (30 mg NTRX-07) QD oral, Day 1, mean ± S.D.) of 323 ± 213 ng·h/mL and a Cmax (human, plasma, po, 120 mg, Table 24 (interim): Cohort B, 120 mg SDD (30 mg NTRX-07) QD oral, Day 1, mean ± S.D., read-out: Cmax) of 109 ± 57.8 ng/mL. The Tmax (human, plasma, po, 120 mg, Table 24 (interim): Cohort B, 120 mg SDD (30 mg NTRX-07) QD oral, Day 1, mean ± S.D., read-out: Tmax) was 0.9 ± 0.6 h, the Vd/F (human, plasma, po, 120 mg, Table 24 (interim): Cohort B, 120 mg SDD (30 mg NTRX-07) QD oral, Day 1, mean ± S.D., read-out: Vd/F) was 1340 ± 750 L and the Tmax (human, plasma, po, 120 mg, Table 25 (interim): Cohort B, 120 mg SDD (30 mg NTRX-07) QD oral, Day 7, individual subjects, read-out: Tmax) was 0.5 h. The AUC over 24 h (AUC0-24) (human, plasma, po, 120 mg, Table 25 (interim): Cohort B, 120 mg SDD (30 mg NTRX-07) QD oral, Day 7, mean ± S.D.) was 214 ± 191 ng·h/mL, the Cmax (human, plasma, po, 120 mg, Table 25 (interim): Cohort B, 120 mg SDD (30 mg NTRX-07) QD oral, Day 7, mean ± S.D., read-out: Cmax) was 120 ± 79.2 ng/mL and the Tmax (human, plasma, po, 120 mg, Table 25 (interim): Cohort B, 120 mg SDD (30 mg NTRX-07) QD oral, Day 7, mean ± S.D., read-out: Tmax) was 0.5 h. It also gave a Vd/F (human, plasma, po, 120 mg, Table 25 (interim): Cohort B, 120 mg SDD (30 mg NTRX-07) QD oral, Day 7, mean ± S.D., read-out: Vd/F) of 1240 ± 936 L, an AUC over 24 h (AUC0-24) (human, plasma, po, 360 mg SDD, Table 29 (interim): Cohort C, 360 mg SDD (90 mg NTRX-07) QD oral, Day 1, mean ± S.D.) of 1290 ± 541 ng·h/mL and a Cmax (human, plasma, po, 360 mg SDD, Table 29 (interim): Cohort C, 360 mg SDD (90 mg NTRX-07) QD oral, Day 1, mean ± S.D., read-out: Cmax) of 439 ± 236 ng/mL. For the same compound, the Tmax (human, plasma, po, 360 mg SDD, Table 29 (interim): Cohort C, 360 mg SDD (90 mg NTRX-07) QD oral, Day 1, mean ± S.D., read-out: Tmax) was 2.3 ± 2.8 h, the Vd/F (human, plasma, po, 360 mg SDD, Table 29 (interim): Cohort C, 360 mg SDD (90 mg NTRX-07) QD oral, Day 1, mean ± S.D., read-out: Vd/F) was 1300 ± 1290 L and the AUC over 24 h (AUC0-24) (human, plasma, po, 360 mg SDD, Table 30 (interim): Cohort C, 360 mg SDD (90 mg NTRX-07) QD oral, Day 7, mean ± S.D.) was 747 ± 349 ng·h/mL. It also gave a Cmax (human, plasma, po, 360 mg SDD, Table 30 (interim): Cohort C, 360 mg SDD (90 mg NTRX-07) QD oral, Day 7, mean ± S.D., read-out: Cmax) of 189 ± 95 ng/mL, a Tmax (human, plasma, po, 360 mg SDD, Table 30 (interim): Cohort C, 360 mg SDD (90 mg NTRX-07) QD oral, Day 7, mean ± S.D., read-out: Tmax) of 1.3 ± 1 h and a Vd/F (human, plasma, po, 360 mg SDD, Table 30 (interim): Cohort C, 360 mg SDD (90 mg NTRX-07) QD oral, Day 7, mean ± S.D., read-out: Vd/F) of 2270 ± 923 L. For the same compound, the AUC over 24 h (AUC0-24) (human, plasma, po, 360 mg SDD, Table 34 (interim): Cohort D (AD), 360 mg SDD (90 mg NTRX-07) QD oral, Day 1, mean ± S.D.) was 1560 ± 329 ng·h/mL, the Cmax (human, plasma, po, 360 mg SDD, Table 34 (interim): Cohort D (AD), 360 mg SDD (90 mg NTRX-07) QD oral, Day 1, mean ± S.D., read-out: Cmax) was 478 ± 154 ng/mL and the Tmax (human, plasma, po, 360 mg SDD, Table 34 (interim): Cohort D (AD), 360 mg SDD (90 mg NTRX-07) QD oral, Day 1, mean ± S.D., read-out: Tmax) was 1.1 ± 0.6 h. For the same compound, the Vd/F (human, plasma, po, 360 mg SDD, Table 34 (interim): Cohort D (AD), 360 mg SDD (90 mg NTRX-07) QD oral, Day 1, mean ± S.D., read-out: Vd/F) was 845 ± 360 L, the AUC over 24 h (AUC0-24) (human, plasma, po, 360 mg SDD, Table 35 (interim): Cohort D (AD), 360 mg SDD (90 mg NTRX-07) QD oral, Day 7, individual subjects) was 1010 ng·h/mL and the Cmax (human, plasma, po, 360 mg SDD, Table 35 (interim): Cohort D (AD), 360 mg SDD (90 mg NTRX-07) QD oral, Day 7, individual subjects, read-out: Cmax) was 286 ng/mL. The Vd/F (human, plasma, po, 360 mg SDD, Table 35 (interim): Cohort D (AD), 360 mg SDD (90 mg NTRX-07) QD oral, Day 7, individual subjects, read-out: Vd/F) was 1260 L, the AUC over 24 h (AUC0-24) (human, plasma, po, 360 mg SDD, Table 35 (interim): Cohort D (AD), 360 mg SDD (90 mg NTRX-07) QD oral, Day 7, mean ± S.D.) was 1430 ± 329 ng·h/mL and the Cmax (human, plasma, po, 360 mg SDD, Table 35 (interim): Cohort D (AD), 360 mg SDD (90 mg NTRX-07) QD oral, Day 7, mean ± S.D., read-out: Cmax) was 240 ± 38 ng/mL. For the same compound, the Tmax (human, plasma, po, 360 mg SDD, Table 35 (interim): Cohort D (AD), 360 mg SDD (90 mg NTRX-07) QD oral, Day 7, mean ± S.D., read-out: Tmax) was 1.1 ± 0.5 h, the Vd/F (human, plasma, po, 360 mg SDD, Table 35 (interim): Cohort D (AD), 360 mg SDD (90 mg NTRX-07) QD oral, Day 7, mean ± S.D., read-out: Vd/F) was 1540 ± 278 L and the “Plasma levels / exposure Day 7 vs Day 1” value (repeat QD dosing, 90 mg cohorts) was “A decrease of levels at Day 7 was observed; also recorded: exposure is decreasing rather than increasing over time”.
